Marks after values point to notes of the source that are not given here.
Legend:
[1] = Acute toxicity (LD50) on intraperitoneal injection into mice; settings: mouse, in vivo, ip, read-out: acute toxicity (LD₅₀)
Excerpt: The isopropyl ester (I) and salts have an acute toxicity (LD₅₀) of approximately 5.3 g/kg on intraperitoneal injection into mice.

[2] = test system: Malonedealdehyde in the Brain of Rats Injected with Autoblood; experiment: Malonedealdehyde (lipid peroxide) content in the brain of autoblood-injected rats; format: in vivo, Male Wistar rats; settings: 300 mg/kg i.p. once a day; right hemispherical brain on the fourth day after the operation; control 168±15
Procedure: Male Wistar rats (weighing about 300 g) were anesthesized with pentobarbital (40 mg/kg i.e.) and fixed on a brain normal position fixing device. In order to form hematoma in the brain, 0.2 cc of autoblood previously collected from the tail vein was injected in the site of the brain at 4 mm to the right from the arrow suture, at 2 mm to the tail side from the crown suture and at 4 mm of the brain surface. The left rear paw was forced onto a stand having a height of 4.5 cm and the time from which the forced posture was maintained was measured and evaluated as neural condition. The ester was intraperitoneally administered immediately after the injection of autoblood and then once a day. Physiological saline alone was given to the control group. […]
Immediately after the observation of the neural condition on the fourth day of the operation, the head of each rat was cut off and the right hemispherical brain was isolated. The lipid peroxides in the brain were fluorometrically determined by forming about 10% of a homogenate with 1.15% potassium chloride, taking 0.1 ml of the homogenate and measuring using malonedealdehyde as a standard substance according to Yagi's method.
Futher in Table IV are shown the results of the effect on malonedealdehyde in the brain. The results were evaluated by the Student's t-test. […]

[3] = test system: rats ligated at carotids (both sides); experiment: Death of rats ligated at both carotids (cerebral ischemia); format: in vivo, male Wistar rats; settings: 300 mg/kg i.p. per single dose, given immediately after and 1 and 2 hours after ligation; dead animals 24 hours after ligation; 24 animals; control 21 dead
Procedure: Both carotids of male Wistar rats (weighting about 300 g) were permanently ligated to cause a cerebral ischemic state. The rats suffered neural conditions (paralysis or spasm of the limbs, etc.) and most of them died in 24 hours. The influence of the ester on death 24 hours afer ligation was examined. The ester was intraperitoneally administered immediately after the ligation, and 1 and 2 hours after the ligation. Physiological saline alone was given to the control group.
(1) mg/kg i.p.: amount of a single dose given. (2) Number of dead animals 24 hours after ligation *5% is a significant difference in death rate compared to the control group (group given physiological saline.

[4] = test system: low oxygen-loaded mice; experiment: Survival time of low oxygen-loaded mice; format: in vivo, Male ICR mice; settings: 300 mg/kg single dose 10 minutes before inhalation of 95.3% nitrogen / 4.7% oxygen; 14 animals; control 201±18
Procedure: Male ICR mice (weighing about 30 g) were put in a glass vessel having a volume of 2 liters, equipped with an inhalation opening and an exhaust opening. A gaseous mixture of 95.3% nitrogen and 4.7% oxygen was blown into the vessel at 5 ℓ/min. to cause a low oxygen state, and the time for mice to die was measured. The ester was intravenously administered 10 minutes before the inhalation of the gaseous mixture. Only physiological saline was given to the control group.
(1) mg/kg i.p.: amount of a single dose given. (2) Unit: second * 5%is a significant difference in death rate as compared to the control group (group given physiological saline).

[5] = test system: autoblood-injected rats; experiment: Neural condition (duration of forced posture) of autoblood-injected rats; format: in vivo, Male Wistar rats; settings: 300 mg/kg i.p. once a day, 30 minutes after administration
Procedure: Male Wistar rats (weighing about 300 g) were anesthesized with pentobarbital (40 mg/kg i.e.) and fixed on a brain normal position fixing device. In order to form hematoma in the brain, 0.2 cc of autoblood previously collected from the tail vein was injected in the site of the brain at 4 mm to the right from the arrow suture, at 2 mm to the tail side from the crown suture and at 4 mm of the brain surface. The left rear paw was forced onto a stand having a height of 4.5 cm and the time from which the forced posture was maintained was measured and evaluated as neural condition. The ester was intraperitoneally administered immediately after the injection of autoblood and then once a day. Physiological saline alone was given to the control group. The measurement of neural condition was made after the operation daily for 4 consecutive days, 30 minutes after administration.
(1) mg/kg i.p.: amount of a single dose given. (2) Unit: second (3) Number of days after the operation. *5% is a significant difference in duration as compared to the control group (group given physiological saline). **1% is a significant difference in duration as compared to the control group. Number of animals: 10 - 11.

CC(C)OC(=O)CNC(=O)[C@H](CS)NC(=O)CC[C@H](N)C(=O)O [Glutathione monoisopropyl ester, isopropyl γ-L-glutamyl-L-cysteinyl glycinate]
LD50 [1]: ~5300 mg/kg | Content of Malonedealdehyde [2]: 97±20 nmol/g wet weight | Number of Dead Animals [3]: 15* | Survival Time [4]: 262 ± 22 s | Duration, Day 1 ([5]; Day 1 after the operation, control 42±10): 11 ± 5 s | Duration, Day 2 ([5]; Day 2 after the operation, control 53±12): 22 ± 11 s | Duration, Day 3 ([5]; Day 3 after the operation, control 43±11): 8 ± 1 s | Duration, Day 4 ([5]; Day 4 after the operation, control 31±10): 7 ± 1 s

From patent EP0257992A2, “Prophylactic and therapeutic agents for cerebral ischemia” (YAMANOUCHI PHARMACEUTICAL CO. LTD., priority 1986, dated 1988)
